From article PMC12371487, “Phenylalkyl Acetophenones and Anacardic Acids from Knema oblongifolia with Synthetic Analogues as Anti-infectives and Antibacterial Agents” (ACS Bio & Med Chem Au, 2025)
In brackets after ≈: the same amount, converted by molar mass. Several values for one entry are separate records, joined by “and”; a condition that tells them apart may be missing. Identical values can stand only once. Like-named read-outs stand apart in the source and are kept apart here.

What was measured:
Format in all cases: cell-based
[1] = test system: Mycobacterium marinum (Mm) in infection of Dictyostelium discoideum; test: Dd-Mm infection assay: intracellular Mm growth (luminescence); conditions: Mm inside Dd, luminescence AUC over 72 h at 25 °C; 6-concentration curve, top 100 μM, 1:3 steps; IC50 interpolated
Experimental: (§1) Plant extracts, fractions, or isolated compounds were stored at −20 °C and wrapped in aluminum foil if necessary. All manipulations with extracts, fractions, or compounds were performed under a sterile hood. Extracts, fractions, and compounds were resuspended throughout in DMSO to best solubilize extracts with diverse constituents. Extracts, fractions, or compounds were added to the assay plate in a 1:100 dilution. Assay solutions of extracts, fractions, and compounds were prepared in 96-well plates, stored at −20 °C, and thawed before the experiment at room temperature or warmer with or without shaking/vortexing to obtain a clear assay solution. Extracts were tested at 25 μg/mL and purified compounds in a dose–response curve of 6 concentrations with 100 μM being the top concentration and a 1:3 dilution step between each testing concentration. Since fractions were not weighed individually, the injection mass was used to calculate an average mass per fraction and thus a nominal mass concentration. Fractions were tested at a nominal concentration of 10 μg/mL.
(§2) As described in Nitschke et al. and Mottet et al., Dd Ax2(ka) expressing mCherry from the act5 chromosomal locus was infected with Mm M strain expressing the lux operon (luxCDABE) , by spinoculation.
(§3) Briefly, the day before the experiment, Mm was cultivated in 7H9 broth (Becton Dickinson, Difco Middlebrook 7H9) supplemented with 10% OADC (Becton Dickinson) and 0.05% tyloxapol (Sigma-Aldrich) and 50 μg/mL kanamycin at 32 °C overnight with continuous shaking. Additionally, the day before the experiment, 10^7 amoebae were plated in HL5-C in a 10 cm Petri dish (Falcon). On the day of the experiment, a volume of the Mm culture corresponding to a multiplicity of infection of 25 with respect to the number of amoebae in the Petri dish was added to the semiconfluent amoebae monolayer. Subsequently, the Petri dishes were centrifuged twice at 500g, as described in Mottet et al. To remove extracellular bacteria, dishes were rinsed with fresh HL5-C, and the infected cell population was resuspended in HL5-C with 5 U/mL penicillin and 5 μg/mL streptomycin (Gibco) to inhibit the extracellular growth of bacteria during the course of the experiment.
(§4) For testing fractions and purified compounds, 20 μL of infected cell suspension was plated into each well of a 384-well plate (Interchim FP-BA8240) to an effective cell number of 1 × 10^4 cells per well. Fractions or compounds including a vehicle control (0.3% DMSO final concentration) and a positive control (rifabutin, 10 μM final concentration) were added using an electronic multipipette (Sartorius). Subsequently, the well plates were sealed with a gas impermeable membrane (H769.1, Carl Roth), briefly centrifuged, and intracellular bacterial growth was monitored using an Agilent BioTek H1 plate reader and an Agilent BioTek BioStack plate stacker by recording luminescence over 72 h at 25 °C with readings taken every hour. Fluorescence was also recorded to monitor amoeba growth.
(§5) For both assays, growth curves were obtained by measuring the luminescence and fluorescence as a proxy for bacterial growth and host growth, respectively, for 72 h with time-points taken every hour. The “normalized residual growth” was computed by calculating the area under the curve (AUC, trapezoid method) and normalizing it to the vehicle control (0.3% DMSO, set at 1) and a baseline curve (set at 0). The baseline curve was calculated by taking the median of the first measurement of all wells in a plate and extrapolating it over the complete time course. The threshold for hit detection was arbitrarily fixed at a cutoff of normalized residual growth ≤0.5. Normalized values were averaged over technical and biological replicates (all experiments on isolated compounds have at least n = 3 and N = 3, whereas the primary extract screening and microfractions testing had values of n = 1 and N = 3). […]

[2] = test system: Dictyostelium discoideum (Dd) in infection; test: Dd-Mm infection assay: host amoeba growth (fluorescence); conditions: infected Dd, fluorescence AUC over 72 h at 25 °C, 6-concentration curve, top 100 μM, 1:3 steps, IC50 interpolated
Experimental: as §1, §2, §3, §4, §5

[3] = test system: Mycobacterium marinum (Mm) in broth; test: Mm growth in broth (antibiotic assay, luminescence); conditions: 72 h; for IC50: read-out: IC50 on Mm in broth
Experimental: as §1, with “Extracts, fractions, and compounds were resuspended throughout in DMSO to best solubilize extracts with diverse constituents.” left out
For testing bacteria in broth, the preculture was diluted to a bacterial density of 3.75 × 10^5 bacteria per mL in 7H9 medium. Plating bacteria and compounds or fractions was performed analogously to the infection assay described above. Bacteria growth was monitored with the Agilent BioTek H1 plate reader by recording luminescence at 32 °C.
For both assays, growth curves were obtained by measuring the luminescence and fluorescence as a proxy for bacterial growth and host growth, respectively, for 72 h with time-points taken every hour. The “normalized residual growth” was computed by calculating the area under the curve (AUC, trapezoid method) and normalizing it to the vehicle control (0.3% DMSO, set at 1) and a baseline curve (set at 0). The baseline curve was calculated by taking the median of the first measurement of all wells in a plate and extrapolating it over the complete time course. The threshold for hit detection was arbitrarily fixed at a cutoff of normalized residual growth ≤0.5.
This procedure was also applied to screening extracts with slight modifications. The day before the experiment we preplated 10 μL of HL5-C using a dispenser (Thermo Multidrop), subsequently we preplated 2.2 μL of dissolved extracts from 96-well plates into quadrants 1, 2, and 3 of 384-well plates, whereas quadrant 4 was used for positive and vehicle controls. Preplating of extracts was performed using a liquid handler (Agilent Bravo). In total, 24 extract plates were distributed in triplicate into […] 384-well plates, amounting to 24 assay plates. The prepared plates were sealed and stored at 4 °C overnight. On the day of the experiment, nine 10 cm Petri dishes were infected (as described before) and grouped into three pools. The cell suspension was adjusted to 10^6 cells/mL, and 10 μL was plated into the 24 assay plates, resulting in 10^4 cells per well, as used for conventional infection experiments. Plates were sealed and placed in the plate stacker that supplied the plate reader. The same procedure was used to screen the same extracts on Mm in a broth. For both assays, the first time points and a time point after 72 h were recorded. Subsequently, we normalized the end point, first with the median of the full assay plate at the first time point and second with the end point of the vehicle controls in the respective assay plate.
For IC50 estimation, we used a rudimentary approach of interpolating the sample concentration between the two normalized residual growth values, which were closest to a value of 0.5.

[4] = test system: Staphylococcus aureus (Sa) Newman strain; test: MIC determination in Mueller-Hinton broth (CLSI) on Sa; conditions: for MIC: Staphylococcus aureus, NEWMAN, read-out: MIC on Sa
Experimental: MICs were determined in Mueller–Hinton (MH) broth according to CLSI guidelines and were repeated at least on three different occasions.
The Newman strain ofS. aureus and the UCBPP-PA14 strain ofP. aeruginosa were used in this study.

[5] = Mm in 7H9 broth, luminescence at 32 °C, IC50 interpolated

Compound | IC50 [1] | IC50 ([2]; Dictyostelium discoideum) | IC50 on Mm in broth [3, 5] | MIC ([4]; Mueller-Hinton broth, CLSI) | MIC on Sa ([4]; Mueller-Hinton broth, CLSI) | also measured
O=C(O)c1c(O)cccc1CCCCc1ccc2c(c1)OCO2 [Compound 3, Knemolic acid A] | 66.7 µM | 66.7 µM | Not active | 8 µg/mL (≈ 25.5 µM) | – | –
5-Bromo-2,4-dihydroxychalcone [Compound 25] | 0.82 µM | – | – | – | not active | IC50 [2]: 0.82 µM; IC50 [3, 5]: 66.7 µM
CC(=O)c1ccc(O)c(Br)c1O [Compound 18, 3-Bromo-2,4-dihydroxyacetophenone] | 66.7 µM | 66.7 µM | not active | – | not active | –
CCCCCCCCCc1cccc(O)c1C(=O)O [Compound 8, Khookerianic acid A] | 2.47 µM | 2.47 µM | not active | 8 µg/mL (≈ 30.3 µM) | – | –
CC(=O)c1cc(Br)c(O)c(Br)c1O [Compound 20, 3,5-Dibromo-2,4-dihydroxyacetophenone] | 66.7 µM | 66.7 µM | not active | – | not active | –
CC(=O)c1ccc(O)cc1O [Compound 13, 2,4-Dihydroxyacetophenone] | 66.7 µM | – | not active | – | not active | IC50 on Dd in infection [2]: not active
CCCCCCCCCCCCCc1cccc(O)c1C(=O)O [Compound 12, 6-Tridecylsalicylic acid] | 66.7 µM | 66.7 µM | Not active | – | Not active | –
CN[C@H](CC(C)C)C(=O)N[C@H]1C(=O)N[C@@H](CC(N)=O)C(=O)N[C@H]2C(=O)N[C@H]3C(=O)N[C@H](C(=O)N[C@H](C(=O)O)c4cc(O)cc(O)c4-c4cc3ccc4O)[C@H](O)c3ccc(c(Cl)c3)Oc3cc2cc(c3O[C@@H]2O[C@H](CO)[C@@H](O)[C@H](O)[C@H]2O[C@H]2C[C@](C)(N)[C@H](O)[C@H](C)O2)Oc2ccc(cc2Cl)[C@H]1O [vancomycin, reference compound] | – | – | – | – | – | MIC [4]: 1 µg/mL (≈ 0.69 µM)
CC(=O)c1c(O)c(Cl)c(O)c(Cl)c1CCCCCCc1ccccc1 [Compound 29, 1-(3,5-Dichloro-2,4-dihydroxy-6-(6-phenylhexyl)phenyl)ethan-1-one] | 2.47 µM | 7.41 µM | not active | 4 to 8 µg/mL (≈ 10.5 to 21 µM) | – | –
2,4-Dihydroxychalcone [Compound 14] | 2.47 µM | – | – | – | 32 mg·L–1 | IC50 [2]: 7.41 µM; IC50 [3, 5]: 66.7 µM
5-Chloro-2,4-dihydroxychalcone [Compound 22] | 1.76 µM | – | – | – | 32 μg·mL^–1 and 32 mg·L–1 | IC50 [2]: 1.76 µM; IC50 [3, 5]: 47.6 µM
O=C(O)c1c(O)cccc1CCCCCCCCc1ccccc1 [Compound 10, Khookerianic acid C/Kneglobularic acid A] | 2.47 µM | 2.47 µM | Not active | 8 µg/mL (≈ 24.5 µM) | – | –
3-Chloro-2,4-dihydroxychalcone [Compound 21] | 1.76 µM | – | – | – | 32–64 mg·L–1 | IC50 [2]: 0.59 µM; IC50 [3, 5]: 47.6 µM
CC(=O)c1ccc(O)c(Cl)c1O [Compound 15, 3-Chloro-2,4-dihydroxyacetophenone] | 22.2 µM | 22.2 µM | not active | – | not active | –
CCCCCCCCCc1cc(O)cc(O)c1C(C)=O [Compound 5, Knemolone D] | – | 22.2 µM | Not active | 2 µg/mL (≈ 7.18 µM) | – | IC50 on Mm in infection [1]: Not active
CC(=O)c1c(O)cc(O)cc1CCCCc1ccccc1 [Compound 2, Knemolone B] | 22.2 µM | 22.2 µM | Not active | 32 µg/mL (≈ 113 µM) | – | –
CC(=O)c1cc(Cl)c(O)cc1O [Compound 16, 5-Chloro-2,4-dihydroxyacetophenone] | 22.2 µM | 22.2 µM | not active | – | not active | –
3-Bromo-2,4-dihydroxychalcone [Compound 24] | 2.47 µM | – | not active | – | 64 mg·L–1 | IC50 [2]: 2.47 µM
O=C(O)c1c(O)cccc1CCCCCCCCc1ccc2c(c1)OCO2 [Compound 9, Kneglobularic acid B] | 7.41 µM | 22.2 µM | Not active | 8 µg/mL (≈ 21.6 µM) | – | –
CO[C@H]1/C=C/O[C@@]2(C)Oc3c(C)c(O)c4c(c3C2=O)C2=NC3(CCN(CC(C)C)CC3)NC2=C(NC(=O)/C(C)=C\C=C\[C@H](C)[C@H](O)[C@@H](C)[C@@H](O)[C@@H](C)[C@H](OC(C)=O)[C@@H]1C)C4=O [rifabutin, reference compound] | 0.2 µM | – | – | – | – | IC50 on Dd in infection [2]: not active; IC50 ([3]; Mycobacterium marinum): 0.03 µM
